Assay results: US7608627B2, “6-azaindole compound” (Takeda Pharmaceutical Company Limited, priority 2005, dated 2009)
Counter-ions that a name gives are not always drawn.

Biological target: T1, IKKβ (Homo sapiens, UniProt O14920)
T1 construct: made in house; host or cells: Sf-21 insect cells, recombinant baculovirus BAC-IKKB (pFASTBAC1)
T1 sequence (O14920 1-756): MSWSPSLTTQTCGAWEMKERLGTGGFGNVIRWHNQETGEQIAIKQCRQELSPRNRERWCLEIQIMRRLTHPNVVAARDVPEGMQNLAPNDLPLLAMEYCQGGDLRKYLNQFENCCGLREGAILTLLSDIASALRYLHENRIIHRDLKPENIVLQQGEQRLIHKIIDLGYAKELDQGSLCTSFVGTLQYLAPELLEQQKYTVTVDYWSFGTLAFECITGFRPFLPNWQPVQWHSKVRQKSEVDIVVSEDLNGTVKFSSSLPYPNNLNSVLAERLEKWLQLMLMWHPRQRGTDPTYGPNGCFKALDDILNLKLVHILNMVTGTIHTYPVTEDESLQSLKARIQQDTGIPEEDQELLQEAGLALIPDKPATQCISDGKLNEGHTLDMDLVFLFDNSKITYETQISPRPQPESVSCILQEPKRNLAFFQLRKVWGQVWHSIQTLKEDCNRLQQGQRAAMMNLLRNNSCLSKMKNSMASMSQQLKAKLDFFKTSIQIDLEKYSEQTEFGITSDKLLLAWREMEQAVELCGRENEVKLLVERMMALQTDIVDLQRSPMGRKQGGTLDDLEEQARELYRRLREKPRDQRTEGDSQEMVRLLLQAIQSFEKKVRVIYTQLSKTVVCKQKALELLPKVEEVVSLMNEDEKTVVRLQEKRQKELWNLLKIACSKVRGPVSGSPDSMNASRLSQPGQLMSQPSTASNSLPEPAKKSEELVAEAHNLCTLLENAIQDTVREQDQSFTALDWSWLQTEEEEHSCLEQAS
Assay: Determination of IKKβ inhibitory activity (32P uptake into IκBα substrate)
Assay type: biochemical
Settings: active IKKβ 10 ng, IκBα substrate protein, [γ-32P]ATP, 30° C. for 60 min; 50% inhibition of 32P uptake by the acid insoluble fraction
Procedure: To a reaction solution (37.5 μl, 25 mM HEPES (pH 7.5), 10 mM magnesium acetate) containing active IKKβ (10 ng) obtained in Reference Example 3A and 2.5 μg of IκBα substrate protein solution was added a test compound (2.5 μl) dissolved in DMSO, and the mixture was incubated at 30° C. for 5 min. To the obtained mixture was added 10 μl of ATP solution (2.5 μM ATP, 0.01 μCi [γ-^32P]ATP) and the mixture was allowed to react at 30° C. for 60 min. Then 20% TCA solution (50 μl) was added thereto to stop the reaction. The reaction solution was left standing at 4° C. for 20 min. and acid insoluble fraction was transferred to a GF/C filter (PACKARD JAPAN KK) using a cell harvester (PACKARD JAPAN KK) and washed with 250 mM phosphoric acid solution. The plate after washing was dried at 45° C. for 60 min., 40 μl of MicroSinti 0 (PACKARD JAPAN KK) was added and the radioactivity was determined using TopCount (PACKARD JAPAN KK). The concentration (IC50) of the test compound necessary for 50% inhibition of the amount of ^32P uptake by the acid insoluble fraction was calculated using PRISM 3.0 (GraphPad Software, Inc.).

c1ccc(C(=NOC2CCNC2)c2cc3ccncc3[nH]2)cc1 (stereo not shown) [Example 91, Phenyl (1H-pyrrolo[2,3-c]pyridin-2-yl)methanone O-pyrrolidin-3-yloxime dihydrochloride]
IC50: 1700 nM
